Earlier results on 2 compounds are cited in patent US20200276216A1, “INHIBITION OF GLYCOLYSIS WITH 2-DEOXY-D-GLUCOSE AND D-LACTIC ACID DIMER” (priority 2020, published 2020).

One data set concerns cancer cells. Particulars: dose dependent, exclusive of its ability to lower pH.
For data set [1] the following is noted: in vivo, po.
For data set [2] the following is noted: in vivo.

On to `C[C@@H](O)C(=O)O[C@H](C)C(=O)O` [DLAD, D-Lactic Acid Dimer], for which, in the data set with cancer cells, the “selectivity of action in vitro” value is “selective for cancer cells”.
The half-life is the time needed for the level to fall by half in the phase considered. On to `O=CC[C@@H](O)[C@H](O)[C@H](O)CO` [2DG, 2-Dexoxy-D-Glucose], for which, in data set [1], the half-life was 4.5 to 8.2 h. The “estimated maximum approximate dose before side effects become clinically significant” value in data set [2] is recorded as about 60 mg/kg/day.
